Measurements published in patent US9381683B2, “Films and methods of manufacture” (priority 2011, dated 2016).

Assays:
[1] = Water solubility; assay type: physicochemical
Text: In vitro testing has shown that due to its poor water solubility, triclosan is released from these films only slowly over […] period, with minimal initial burst release.

[2] = Stability of gentamicin sulfate to manufacturing conditions (heat, organic solvents); assay type: physicochemical
Text: In one embodiment, the drug selected must be stable during the manufacturing processes required to fabricate the implant.

Compound: Oc1cc(Cl)ccc1Oc1ccc(Cl)cc1Cl [triclosan, 2,4,4′-trichloro-2′-hydroxydiphenyl ether]
- water solubility [1]: poor

Compound: Gentamicin sulfate
- thermal stability (thermally stable above) [2]: above 100 °C
- stability to organic solvents ([2]; organic solvents including DMSO): stable
